# Key:
# [1] = tested on: drug sensitive and resistant cell lines SKN-SH, Neuro2A, Saos2, HL-60; test: Reversal of drug resistance in various cancer types (OT-551 with or without doxorubicin); assay type: cell-based, human, murine; details: in combination with doxorubicin; 96 hours
# Experimental: This example illustrates that OT-551 and analogs reverse drug resistance to non-anthracycline drugs in various cancer types. The effects of analogs were tested on drug sensitive and resistant (R) cell lines corresponding to various cancer types, including the human neuroblastoma cell line SKN-SH (ATCC Cat. No. HTB-1), the murine neuroblastoma cell line Neuro2A (ATCC Cat. No. CCL-131), the osteosarcoma cells Saos2 (ATCC Cat. No. HTB-85) and the leukemia cell line HL-60 (ATCC Cat. No. CCL240). The cells were treated with OT-551 with or without doxorubicin as described above. Cell viability was calculated after 96 hours of incubation with the drug combination.
# [2] = Ocular permeability and retina levels after topical administration; assay type: in vivo
# [3] = tested on: Human whole blood clot formation; details: compound 4 at 1 ug and 10 ug
# [4] = In vitro stability in rat, rabbit, dog, and human plasma (overall statement); assay type: in vitro ADME; details: 240 minute incubation in plasma
# Experimental: The active metabolite of OT-551 (Cyclopropanecarboxylic acid 1-hydroxy-2,2,6,6-tetramethyl-piperidin-4-yl ester) is TP-H. The objective of this analysis was to determine the in vitro half-life of OT-551 in rat, rabbit, dog, and human plasma under standardized incubation conditions.
# OT-551 was incubated with pooled rat, rabbit, dog, and human plasma for various times under standardized incubation conditions. Pre-labeled tubes containing pooled plasma from rats, rabbits, dogs, and humans were pre-incubated in a shaking 37° C. water bath. A OT-551 solution was added to the tubes at a final concentration of 1000 ng/mL. Time zero samples (n=5) were immediately removed and transferred into tubes containing a stabilizer solution (DTPA, acetylcysteine and ascorbic acid), the LC/MS/MS assay internal standard and methanol. […] The tubes were vortexed, placed on ice, followed by centrifugation. One hundred-μL aliquots of the supernatant were transferred into HPLC sample vials. Additional tubes (n=5 at each time point) were incubated for 5, 10, 20, 30, 60, 120, and 240 minutes at 37° C. and thereafter processed. The amount of OT-551 and TP-H in each incubated sample was quantified using validated LC/MS/MS assays.
# [5] = tested on: selenite induced cataract; test: Selenite induced cataract in mice; details: mouse, in vivo
# Excerpt: In addition, as mentioned above, there is no precedent for the prevention of growth factor-induced angiogenesis by either TEMPOL or hydroxylamines.
# [6] = tested on: VEGF-induced angiogenesis in the CAM model; test: VEGF-induced angiogenesis in the CAM model; assay type: in vivo, chicken; details: for Mean % Inhibition ± SD / Mean Branch points ± SD: VEGF 2 μg/ml
# Experimental: (§1) In vivo neovascularization was examined by the method previously described by Auerbach et al. (J. Dev. Biol. 41:391-394 (1974)). Ten-day old chicken embryos were purchased from Spafas, Inc. (Preston, Conn.) and were incubated at 37° C. with 55% relative humidity. In the dark, with the aid of a candling lamp, a small hole was punctured in the shell concealing the air sac with a hypodermic needle. A second hole was punctured in the shell on the broadside of the egg directly over an […] portion of the embryonic membrane, as observed during candling. An artificial air sac was created beneath the second hole by applying gentle vacuum to the first hole using a small rubber squeeze bulb. The vacuum caused the chorioallantoic membrane (CAM) to separate from the shell.
# (§2) A pro-angiogenic agent was added to induce new blood vessel branches on the CAM of 10-day old embryos. Filter disks of #1 filter paper (Whatman International, United Kingdom) were punched using a small puncher and were soaked in 3 mg/mL cortisone acetate (Sigma, St. Louis, Mo.) in a solution (95% ethanol and water). The disks were subsequently air dried under sterile conditions. The disks were then suspended in PBS (Phosphate Buffered Saline) and placed on growing CAMs. Filters treated with TP-H (TEMPOL-H) or TEMPOL and/or H2O2 or TP-H and/or bFGF or VEGF were placed on the first day of the 3-day incubation.
# (§3) The number of vessel branch points contained in a circular region equal to the area of a filter disk was counted for each section. Percent inhibition data are expressed as the quotient of the experimental value minus the negative control value divided by the difference between the positive control value and the negative control value. One image was counted in each CAM preparation, and findings from eight CAM preparations were analyzed for each treatment condition. In addition, each experiment was performed three times. The resulting angiogenesis index is the mean ±SEM (Standard Error of Measurement) of new branch points in each set of treatment. Statistical analysis of blood vessel branching patterns are performed by 1-way analysis of variance (ANOVA) comparing experimental with corresponding control groups. Statistical significance differences are assessed at P value of <0.05.
# TP-H was applied to the CAM model study to determine its respective anti-angiogenesis effects according to the materials and methods described above. VEGF was used to induce angiogenesis in the CAM model.
# [7] = tested on: H2O2-induced angiogenesis in the CAM model; test: H2O2-induced angiogenesis in the CAM model; assay type: in vivo, chicken; details: for % Inhibition ± SD / Branch pts ± SEM: H2O2 88 μM, 30 ng
# Experimental: as §1, §2, §3
# TP-H (TEMPOL-H, the hydroxylamine reduced form of the nitroxide 4-hydroxy-2,2,6,6-tetramethylpiperidin-1-yloxy) or TEMPOL (4-hydroxy-2,2,6,6-tetramethylpiperidine-N-oxyl radical) was applied to the CAM model study to determine its respective anti-angiogenesis effects according to the materials and methods provided in Example 1. H2O2 was used to induce angiogensis in the CAM model.
smiles,measurement,setting,value
"CC1(C)CC(OC(=O)C2CC2)CC(C)(C)N1O.Cl [OT-551, 1-hydroxy-4-cyclopropanecarbonyloxy-2,2,6,6-tetramethylpiperidine hydrochloride]",effect on doxorubicin toxicity,[1],able to enhance doxorubicin toxicity in all the drug resistant cell lines tested
same,levels in the retina,[2]; after topical administration,good levels in the retina
same,permeability through the cornea,[2]; in vivo,good permeability through the cornea
same,effect on clot formation with Bevacizumab/Ranibizumab,[3],completely abrogated the clot formation
CC1(C)CC(O)CC(C)(C)N1O [TEMPOL-H],stability of TP-H during the incubation period,[4],stable during the 240 minute incubation period
same,prevention of selenite induced cataract,[5],effective
same,Mean % Inhibition ± SD,[6]; 100 μg,37.6 ± 6.9 %
same,Mean Branch points ± SD,[6]; 100 μg,154.8 ± 7.5
same,Mean % Inhibition ± SD,[6]; 200 μg,42 ± 3.5 %
same,Mean Branch points ± SD,[6]; 200 μg,150 ± 3.8
same,Mean % Inhibition ± SD,[6]; 400 μg,53.3 ± 3.3 %
same,Mean Branch points ± SD,[6]; 400 μg,137.8 ± 3.0
same,Mean % Inhibition ± SD,[6]; 800 μg,70.7 ± 9.1 %
same,Mean Branch points ± SD,[6]; 800 μg,118.8 ± 9.9
same,inhibition of VEGF-induced angiogenesis,[6]; in vivo,dose-dependent inhibition
same,% Inhibition ± SD,[7]; 100 μg,28.0 ± 13.6 %
same,Branch pts ± SEM,[7]; 100 μg,155 ± 14.4
same,% Inhibition ± SD,[7]; 200 μg,32.9 ± 8.4 %
same,Branch pts ± SEM,[7]; 200 μg,151.3 ± 15.3
same,% Inhibition ± SD,[7]; 400 μg,44.7 ± 6.6 %
same,Branch pts ± SEM,[7]; 400 μg,137.2 ± 6.9
same,% Inhibition ± SD,[7]; 800 μg,55.7 ± 7.2 %
same,Branch pts ± SEM,[7]; 800 μg,127.3 ± 6.4
same,inhibition of angiogenesis induced by super-maximal concentrations of H2O2,[7]; in vivo,effectively inhibited
